≈ marks a conversion by molar mass, not a printed value. Like-named read-outs stand apart in the source and are kept apart here. Positions of bridges follow the written chain, without caps; N, C: chain ends. Residues, ends and D or L forms follow the SMILES beside them. Chains are numbered I, II in the order given. *: point of attachment. Cys(free,S-linked) = N[C@@H](CS*)C(=O)O; Myristoyl = CCCCCCCCCCCCCC(=O)*; SPy = c1ccc(S*)nc1
How the values were obtained:
[1] = tested on: Escherichia coli strain TG1
Method: (§1) Compounds were tested for antimicrobial activity against a variety of bacterial strains that included one or more of the following microorganisms: Escherichia coli strain TG1, Bacillus subtilis strain 168S, Staphylococcus aureus H, Enterococcus faecium STR 207 (Van A resistant phenotype), Enrterococcus faecium STR211 (Vancomycin sensitive phenotype), and Enterococcus faecalis V 583 (Van B resistant phenotype). For the testing of compounds for antimicrobial activity against E. coli and B. subtilis cultures of each bacterial strain were diluted in 2.5 mL of fresh LB broth to approximately 5×10^6 cells/mL for assay. […] The cultures were grown with shaking for up to 16 h at 37° C. for E. coli cultures and 30° C. for B. subtilis cultures. Antibacterial activity was determined from inspection of the turbidity of the different cultures and from determination of the optical density of the cultures at a wavelength of 600 nm. For the testing of compounds for antimicrobial activity against E. Faecium STR 207, E. faecium 211, E. faecalis V 583, and S. aureus H, a different procedure was used. These microorganisms were cultured in brain heart/0.5% yeast extract (BHY) broth and incubated overnight at 37° C. A sample of each culture was then diluted 40-fold in fresh BHY broth and incubated at 37° C. for 1 h. The resultant mid-log phase cultures were diluted to 106 cfu/mL, then added to wells of 96-well polypropylene plates. […] The 96-well plates were covered and incubated at 37° C. overnight. Minimum inhibitory concentrations were determined by inspection of turbidity after incubation.

[2] = tested on: Bacillus subtilis strain 168S
Method: Compounds were tested for antimicrobial activity against a variety of bacterial strains that included one or more of the following microorganisms: Escherichia coli strain TG1, Bacillus subtilis strain 168S, Staphylococcus aureus H, Enterococcus faecium STR 207 (Van A resistant phenotype), Enrterococcus faecium STR211 (Vancomycin sensitive phenotype), and Enterococcus faecalis V 583 (Van B resistant phenotype). For the testing of compounds for antimicrobial activity against E. coli and B. subtilis cultures of each bacterial strain were diluted in 2.5 mL of fresh LB broth to approximately 5×10^6 cells/mL for assay. […] Antibacterial activity was determined from inspection of the turbidity of the different cultures and from determination of the optical density of the cultures at a wavelength of 600 nm. For the testing of compounds for antimicrobial activity against E. Faecium STR 207, E. faecium 211, E. faecalis V 583, and S. aureus H, a different procedure was used. These microorganisms were cultured in brain heart/0.5% yeast extract (BHY) broth and incubated overnight at 37° C. A sample of each culture was then diluted 40-fold in fresh BHY broth and incubated at 37° C. for 1 h. The resultant mid-log phase cultures were diluted to 106 cfu/mL, then added to wells of 96-well polypropylene plates. […] The 96-well plates were covered and incubated at 37° C. overnight. Minimum inhibitory concentrations were determined by inspection of turbidity after incubation.

[3] = tested on: Staphylococcus aureus H
Method: as §1

[4] = tested on: Enterococcus faecalis V 583 (Van B resistant phenotype); conditions: E. faecalis V 583
Method: as §1

[5] = tested on: Enterococcus faecium STR 211 (Vancomycin sensitive phenotype)
Method: as §1

[6] = tested on: Enterococcus faecium STR 207 (Van A resistant phenotype); conditions: E. faecium STR 207
Method: as §1

[7] = physchem; conditions: dimethylsulphoxide
Method: The 2-thiopyridyl content of the peptide was measured by dissolving it to around 0.03 mM to 0.2 mM in 0.1 M Sodium Borate pH 8.0 and reducing by addition of dithiothreitol to 5 mM. The change in optical density at 343 nm was used to calculate the amount of pyridine 2-thione released using an extinction coefficient at this wavelength of 8080 cm−1 M−1.

[8] = tested on: sensitised sheep erythrocytes; test: Haemolysis assay; type: cell-based; conditions: 1 hour at 37° C., printed μM or uM, read-out: LC50 (concentration of compound required to give 50% lysis)
Method: (§2) Lysis of sensitised sheep erythrocytes was measured using a standard haemolytic assay using a v-bottom microtitre plate format as follows:
(§3) 50 microlitres of a range of concentrations of compound diluted in Hepes buffer were mixed with 100 microlitres of sensitised sheep erythrocytes and then incubated for 1 hour at 37° C. Samples were spun at 1600 rpm at ambient temperature for 3 minutes before transferring 150 microlitres of supernatant to a flat bottom microtitre plate and determining the absorption at 405 or 410 nm. Maximum lysis (Amax) was determined by incubating serum with erythrbcytes in the presence of human serum diluted 1:400 (final concentration in assay mixture) in 0.1 M Hepes/0.15 M NaCl/0.1% gelatin pH 7.4. Background lysis (Ao) was determined by incubating erythrocytes in the absence of any serum or compound, using PBS as a control.

[9] = Haemolysis assay; type: cell-based; conditions: sensitised sheep erythrocytes, 1 hour at 37° C., printed μM or uM, read-out: LC50 (concentration of compound required to give 50% lysis)
Method: as §2, §3

[10] = STR 211 (Vancomycin sensitive phenotype)

Row | Structure (SMILES) | minimum inhibitory concentration to prevent the growth of E. coli strain TG1 ([1]; strain TG1, 6 h) [µg/mL] | minimum inhibitory concentration to prevent the growth of E. coli strain TG1 ([1]; strain TG1, 16 h) [µg/mL] | minimum inhibitory concentration to prevent the growth of B. subtilis strain 168S ([2]; 6 h) [µg/mL] | minimum inhibitory concentration to prevent the growth of B. subtilis strain 168S ([2]; 24 h) [µg/mL] | minimum inhibitory concentration ([3]; H) [µg/mL] | minimum inhibitory concentration [4] [µg/mL] | minimum inhibitory concentration [5, 10] [µg/mL] | minimum inhibitory concentration [6] [µg/mL] | solubility [7] [µg/mL] | minimum inhibitory concentration ([3]; S. aureus H) [µg/mL] | minimum inhibitory concentration ([5]; E. faecium STR 211) [µg/mL] | CC50 [8] [µM] | CC50 at 1 hour [9] [µM]
1 | CCCCCCCCCCCCCC(=O)NCC(=O)N[C@@H](CO)C(=O)N[C@@H](CO)C(=O)N[C@@H](CCCCN)C(=O)N[C@@H](CO)C(=O)N1CCC[C@H]1C(=O)N[C@@H](CO)C(=O)N[C@@H](CCCCN)C(=O)N[C@@H](CCCCN)C(=O)N[C@@H](CCCCN)C(=O)N[C@@H](CCCCN)C(=O)N[C@@H](CCCCN)C(=O)N[C@@H](CCCCN)C(=O)N1CCC[C@H]1C(=O)NCC(=O)N[C@@H](CC(=O)O)C(=O)N[C@@H](CSSC[C@H](NC(=O)[C@H](CC(=O)O)NC(=O)CNC(=O)[C@@H]1CCCN1C(=O)[C@H](CCCCN)NC(=O)[C@H](CCCCN)NC(=O)[C@H](CCCCN)NC(=O)[C@H](CCCCN)NC(=O)[C@H](CCCCN)NC(=O)[C@H](CCCCN)NC(=O)[C@H](CO)NC(=O)[C@@H]1CCCN1C(=O)[C@H](CO)NC(=O)[C@H](CCCCN)NC(=O)[C@H](CO)NC(=O)[C@H](CO)NC(=O)CNC(=O)CCCCCCCCCCCCC)C(N)=O)C(N)=O [APT540] (I: Myristoyl-GSSKSPSKKKKKKPGDC-NH2 / II: Myristoyl-GSSKSPSKKKKKKPGDC-NH2; disulfide I:17-II:17) | 67 | 200 | 7 | 7 | – | – | – | – | – | – | – | – | –
2 | CCCCCCCCCCCCCC(=O)NCC(=O)N[C@@H](CO)C(=O)N[C@@H](CO)C(=O)N[C@@H](CCCCN)C(=O)N[C@@H](CO)C(=O)N1CCC[C@H]1C(=O)N[C@@H](CO)C(=O)N[C@@H](CCCCN)C(=O)N[C@@H](CCCCN)C(=O)N[C@@H](CCCCN)C(=O)N[C@@H](CCCCN)C(=O)N[C@@H](CCCCN)C(=O)N[C@@H](CCCCN)C(=O)N1CCC[C@H]1C(=O)NCC(=O)N[C@@H](CC(=O)O)C(=O)N[C@@H](CSSC[C@H](N)C(=O)O)C(N)=O [APT541] (Myristoyl-GSSKSPSKKKKKKPGDC(Cys(free,S-linked))-NH2) | – | – | – | – | 64 (≈ 30.2 µM) | 256 (≈ 121 µM) | 64 (≈ 30.2 µM) | – | – | – | – | – | –
3 | CCCCCCCCCCCCCC(=O)NCC(=O)N[C@@H](CO)C(=O)N[C@@H](CO)C(=O)N[C@@H](CCCCN)C(=O)N[C@@H](CO)C(=O)N1CCC[C@H]1C(=O)N[C@@H](CO)C(=O)N[C@@H](CCCCN)C(=O)N[C@@H](CCCCN)C(=O)N[C@@H](CCCCN)C(=O)N[C@@H](CCCCN)C(=O)N[C@@H](CCCCN)C(=O)N[C@@H](CCCCN)C(=O)N1CCC[C@H]1C(=O)NCC(=O)N[C@@H](CC(=O)O)C(=O)N[C@@H](CSSc1ccccn1)C(N)=O [APT542] (Myristoyl-GSSKSPSKKKKKKPGDC(SPy)-NH2) | 22 | 67 | 3 | 22 | 64 (≈ 30.4 µM) | 256 (≈ 121 µM) | 32 (≈ 15.2 µM) | 64 (≈ 30.4 µM) | ≥ 10000 | – | – | – | –
4 | CN[C@H](CC(C)C)C(=O)N[C@H]1C(=O)N[C@@H](CC(N)=O)C(=O)N[C@H]2C(=O)N[C@H]3C(=O)N[C@H](C(=O)N[C@H](C(=O)NCCSSc4ccccn4)c4cc(O)cc(O)c4-c4cc3ccc4O)[C@H](O)c3ccc(c(Cl)c3)Oc3cc2cc(c3O[C@@H]2O[C@H](CO)[C@@H](O)[C@H](O)[C@H]2O[C@H]2C[C@](C)(N)[C@H](O)[C@H](C)O2)Oc2ccc(cc2Cl)[C@H]1O.Cl [APT2033] | – | – | – | – | – | 32 | – | 256 | – | 4 | 2 | > 166 | –
5 | CN[C@H](CC(C)C)C(=O)N[C@H]1C(=O)N[C@@H](CC(N)=O)C(=O)N[C@H]2C(=O)N[C@H]3C(=O)N[C@H](C(=O)N[C@H](C(=O)NCCS)c4cc(O)cc(O)c4-c4cc3ccc4O)[C@H](O)c3ccc(c(Cl)c3)Oc3cc2cc(c3O[C@@H]2O[C@H](CO)[C@@H](O)[C@H](O)[C@H]2O[C@H]2C[C@](C)(N)[C@H](O)[C@H](C)O2)Oc2ccc(cc2Cl)[C@H]1O.Cl [APT2035] | – | – | – | – | – | 16 | – | – | – | 8 | 2 | > 166 | –
6 | CCCCCCCCCCCCCC(=O)NCC(=O)N[C@@H](CO)C(=O)N[C@@H](CO)C(=O)N[C@@H](CCCCN)C(=O)N[C@@H](CO)C(=O)N1CCC[C@H]1C(=O)N[C@@H](CO)C(=O)N[C@@H](CCCCN)C(=O)N[C@@H](CCCCN)C(=O)N[C@@H](CCCCN)C(=O)N[C@@H](CCCCN)C(=O)N[C@@H](CCCCN)C(=O)N[C@@H](CCCCN)C(=O)N1CCC[C@H]1C(=O)NCC(=O)N[C@@H](CC(=O)O)C(=O)N[C@@H](CSSCCNC(=O)[C@H]1NC(=O)[C@H]2NC(=O)[C@H](NC(=O)[C@@H]3NC(=O)[C@H](CC(N)=O)NC(=O)[C@H](NC(=O)[C@@H](CC(C)C)NC)[C@H](O)c4ccc(c(Cl)c4)Oc4cc3cc(c4O[C@@H]3O[C@H](CO)[C@@H](O)[C@H](O)[C@H]3O[C@H]3C[C@](C)(N)[C@H](O)[C@H](C)O3)Oc3ccc(cc3Cl)[C@H]2O)c2ccc(O)c(c2)-c2c(O)cc(O)cc21)C(N)=O [APT2036] | – | – | – | – | – | 8 (≈ 2.28 µM) | – | 8 (≈ 2.28 µM) | – | 4 (≈ 1.14 µM) | 8 (≈ 2.28 µM) | – | 71
7 | CCCCCCCCCCCCCC(=O)NCC(=O)N[C@@H](CO)C(=O)N[C@@H](CO)C(=O)N[C@@H](CCCCN)C(=O)N[C@@H](CO)C(=O)N1CCC[C@H]1C(=O)N[C@@H](CO)C(=O)N[C@@H](CCCCN)C(=O)N[C@@H](CC(=O)O)C(=O)N[C@@H](CCCCN)C(=O)N[C@@H](CC(=O)O)C(=O)N[C@@H](CCCCN)C(=O)N[C@@H](CC(=O)O)C(=O)N1CCC[C@H]1C(=O)NCC(=O)N[C@@H](CC(=O)O)C(=O)N[C@@H](CSSCCNC(=O)[C@H]1NC(=O)[C@H]2NC(=O)[C@H](NC(=O)[C@@H]3NC(=O)[C@H](CC(N)=O)NC(=O)[C@H](NC(=O)[C@@H](CC(C)C)NC)[C@H](O)c4ccc(c(Cl)c4)Oc4cc3cc(c4O[C@@H]3O[C@H](CO)[C@@H](O)[C@H](O)[C@H]3O[C@H]3C[C@](C)(N)[C@H](O)[C@H](C)O3)Oc3ccc(cc3Cl)[C@H]2O)c2ccc(O)c(c2)-c2c(O)cc(O)cc21)C(N)=O [APT2041] | – | – | – | – | – | 16 (≈ 4.62 µM) | – | 16 (≈ 4.62 µM) | – | 8 (≈ 2.31 µM) | 4 (≈ 1.15 µM) | – | 4.5

Reference: patent US7078380B2, “Antibacterial agents comprising conjugates of glycopeptides and peptidic membrane associating elements” (priority 2000, dated 2006)
